Test results from PMC3529809 (Steroids, 2012).
pIC50: −log10 of the molar value. “Also recorded” adds a separate entry of the source.

Columns and labels:
[1] = target: T1, human ERβ (Homo sapiens, UniProt Q92731); assay: ERELUC transient transfection reporter assay, ERβ in HepG2 cells; format: cell-based; settings: for effect on ERβ-mediated induction of ERELUC by E2, DHEA, 7-oxo-DHEA, ADIOL and ADIONE: 1 µM ICI, 100 nM 4-OHT, 1 µM R,R-THC, 5 µM sterol, Fig. 3B; for ERELUC activity in ERβ-expressing HepG2 cells: 5 µM, 24 h, Fig. 1B, result in words
T1 sequence (Q92731 whole entry): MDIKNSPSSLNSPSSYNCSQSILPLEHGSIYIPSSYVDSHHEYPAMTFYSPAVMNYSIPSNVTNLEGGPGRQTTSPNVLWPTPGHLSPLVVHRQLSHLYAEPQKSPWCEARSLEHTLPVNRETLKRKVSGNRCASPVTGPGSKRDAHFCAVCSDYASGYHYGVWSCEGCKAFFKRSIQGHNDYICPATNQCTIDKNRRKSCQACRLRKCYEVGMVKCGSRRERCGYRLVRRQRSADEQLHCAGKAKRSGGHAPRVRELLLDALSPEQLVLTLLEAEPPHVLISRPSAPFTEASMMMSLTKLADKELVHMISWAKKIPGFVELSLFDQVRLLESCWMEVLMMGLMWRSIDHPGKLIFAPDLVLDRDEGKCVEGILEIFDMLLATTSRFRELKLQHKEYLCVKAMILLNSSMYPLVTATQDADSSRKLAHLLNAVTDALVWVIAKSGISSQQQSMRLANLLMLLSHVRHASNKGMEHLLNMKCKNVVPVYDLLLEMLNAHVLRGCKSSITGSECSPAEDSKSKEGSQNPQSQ

[2] = system: ERβ; settings: 0.1 µM, HEK-293; cited from earlier work
[3] = system: ERα; settings: 0.1 µM, HEK-293; cited from earlier work
[4] = system: MCF-7 cells; settings: cited from earlier work; for proliferation of MCF-7 cells: 1–10 µM concentrations
[5] = system: NRF1 (NRF-1) expression; assay: QRT-PCR of NRF1 in ERβ-transfected HepG2 cells; format: cell-based, human; settings: 10 nM E2 or 5 µM sterol, 24 h, Fig. 5B
[6] = target: T2, hERα (Homo sapiens, UniProt P03372); assay: [3H] E2 ligand binding competition; settings: result in words
T2 sequence (P03372 whole entry): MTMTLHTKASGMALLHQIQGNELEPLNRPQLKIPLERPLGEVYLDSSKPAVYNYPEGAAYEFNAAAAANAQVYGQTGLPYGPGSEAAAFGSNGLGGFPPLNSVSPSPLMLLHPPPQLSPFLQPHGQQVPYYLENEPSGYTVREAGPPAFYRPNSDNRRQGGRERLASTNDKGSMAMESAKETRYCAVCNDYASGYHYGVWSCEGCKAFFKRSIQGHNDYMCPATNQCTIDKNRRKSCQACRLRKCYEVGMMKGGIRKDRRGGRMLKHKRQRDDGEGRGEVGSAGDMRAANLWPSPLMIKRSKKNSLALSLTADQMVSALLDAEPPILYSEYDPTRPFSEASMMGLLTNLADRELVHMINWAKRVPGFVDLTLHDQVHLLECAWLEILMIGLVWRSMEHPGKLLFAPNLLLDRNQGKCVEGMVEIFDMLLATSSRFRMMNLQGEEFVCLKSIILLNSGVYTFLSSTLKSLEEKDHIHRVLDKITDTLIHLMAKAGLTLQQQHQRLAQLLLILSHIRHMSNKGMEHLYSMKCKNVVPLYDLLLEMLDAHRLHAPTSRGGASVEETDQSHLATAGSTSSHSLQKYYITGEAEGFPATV

[7] = target: T2, hERα; assay: ERELUC transient transfection reporter assay, ERα in HEK-293 cells; format: cell-based; settings: HEK-293; result in words
[8] = system: TFF1 (pS2), PGR (PR), CTSD (cathepsin D) transcription; assay: QRT-PCR of endogenous ER-target genes in ERα-transfected HEK-293 cells; format: cell-based, human; settings: 10 nM E2 or 5 µM sterol, 24 h, Fig. 5A
[9] = target: T1, human ERβ; assay: [3H] E2 ligand binding competition; settings: IC50 for ERβ, competition with 30 nM [3H] E2, Fig. 6B
[10] = system: MCF-7 human breast cancer cells; assay: Cell proliferation BrdU assay; format: cell-based; settings: 48 h BrdU; 10 nM E2, 5 µM sterols; Fig. 7
[11] = system: ERβ; settings: 50 µM, COS cells; cited from earlier work
[12] = system: ERα; settings: 50 µM, COS cells; cited from earlier work

CC[C@@H]1Cc2cc(O)ccc2C2=C1c1ccc(O)cc1C[C@H]2CC (relative stereo) [R,R-THC, R,R-cis-diethyl tetrahydrochrysene, reference compound]
effect on ERβ-mediated induction of ERELUC by E2, DHEA, 7-oxo-DHEA, ADIOL and ADIONE [1]: significantly inhibited

C[C@]12CC[C@H](O)C[C@@H]1CC[C@@H]1[C@@H]2CC[C@]2(C)[C@@H](O)CC[C@@H]12 [3β-Adiol, 5α-androstane-3β,17β-adiol]
ERE-luciferase activity, ERβ [2]: activated
ERE-luciferase activity, ERα [3]: activated
proliferation of MCF-7 cells [4]: stimulated proliferation
NRF-1 mRNA expression [5]: increased; also recorded: low induction

CC/C(=C(\c1ccc(O)cc1)c1ccc(OCCN(C)C)cc1)c1ccccc1 [4-OHT, 4-hydroxytamoxifen, reference compound]
effect on ERβ-mediated induction of ERELUC by E2, DHEA, 7-oxo-DHEA, ADIOL and ADIONE [1]: inhibited

C[C@]12CC[C@H](O)CC1=CC(=O)[C@@H]1[C@@H]2CC[C@]2(C)C(=O)CC[C@@H]12 [7-oxo-DHEA, 3β-hydroxyandrost-5-ene-7,17-dione]
ERELUC activity in ERβ-expressing HepG2 cells [1]: significantly induced
ERα binding / competition with E2 [6]: did not exhibit significant ERα binding
ERα agonist activity in ERELUC assay [7]: lack of ERα-induced ERE-luciferase activity
CTSD (cathepsin D) expression [8]: no activation
PGR (PR) expression [8]: no activation
TFF1 (pS2) expression [8]: increased
pIC50 [9]: 3.30
NRF-1 mRNA expression [5]: low induction
MCF-7 cell proliferation [10]: increased

C[C@]12CC[C@H](O)CC1=C[C@@H](O)[C@@H]1[C@@H]2CC[C@]2(C)C(=O)CC[C@@H]12 [7α-OH-DHEA, 7α-hydroxy-DHEA]
ERELUC activity in ERβ-expressing HepG2 cells [1]: increased
ERα agonist activity in ERELUC assay [7]: lack of ERα activity
CTSD (cathepsin D) expression [8]: no induction
PGR (PR) expression [8]: no induction
TFF1 (pS2) expression [8]: no induction
ERE-TK-luciferase reporter activity, ERβ [11]: stimulated activity
ERE-TK-luciferase reporter activity, ERα [12]: stimulated activity
NRF-1 mRNA expression [5]: low induction
NRF-1 mRNA expression ([5]; listed as α-OH-DHEA): statistically significant increase

C[C@]12CC[C@H](O)C[C@@H]1C[C@@H](O)[C@@H]1[C@@H]2CC[C@]2(C)C(=O)CC[C@@H]12 [7α-OH-EpiA, 7α-hydroxy-epiandrosterone]
MCF-7 proliferation ([4]; 1–100 nM): inhibited

C[C@]12CC[C@H](O)CC1=C[C@H](O)[C@@H]1[C@@H]2CC[C@]2(C)C(=O)CC[C@@H]12 [7β-OH-DHEA, 7β-hydroxy-DHEA]
ERELUC activity in ERβ-expressing HepG2 cells [1]: suppressed

C[C@]12CC[C@H](O)C[C@@H]1C[C@H](O)[C@@H]1[C@@H]2CC[C@]2(C)C(=O)CC[C@@H]12 [7β-OH-EpiA, 7β-Hydroxy-epiandrosterone]
E2-induced proliferation of MCF-7 cells ([4]; 1–100 nM, no dose-response detected): inhibited
cell proliferation, compound alone ([4]; 1–100 nM): did not affect

C[C@]12CC[C@H](O)CC1=CC[C@@H]1[C@@H]2[C@@H](O)C[C@]2(C)C(=O)CC[C@@H]12 [11β-OH-DHEA, 11β-hydroxy-DHEA]
ERELUC activity in ERβ-expressing HepG2 cells [1]: suppressed

C[C@]12CC[C@H](O)CC1=CC[C@@H]1[C@@H]2CC[C@]2(C)C(=O)[C@H](O)C[C@@H]12 [16α-OH-DHEA, 16α-hydroxy-DHEA]
ERELUC activity in ERβ-expressing HepG2 cells [1]: increased
ERα agonist activity in ERELUC assay [7]: lack of ERα-induced ERE-luciferase activity
CTSD (cathepsin D) expression [8]: no activation
PGR (PR) expression [8]: no activation
TFF1 (pS2) expression [8]: increased
NRF-1 mRNA expression [5]: statistically significant increase; also recorded: low induction

C[C@]12CC[C@H]3[C@@H](CC=C4C[C@@H](O)CC[C@@]43C)[C@@H]1CC[C@@H]2O [ADIOL, androst-5-ene-3β,17β-diol]
ERELUC activity in ERβ-expressing HepG2 cells [1]: significantly induced
ERE-luciferase activity, ERβ [2]: activated
ERE-luciferase activity, ERα [3]: activated
TFF1 (pS2) expression [8]: increased
proliferation of MCF-7 cells [4]: stimulated proliferation
MCF-7 cell growth ([4]; DHEA 0.5 µM, ADIOL 2 nM): stimulated
MCF-7 cell proliferation ([4]; less than E2): increased cell proliferation
NRF-1 mRNA expression [5]: statistically significant increase
MCF-7 cell proliferation [10]: increased
